From US9840512B2, “Antidiabetic bicyclic compounds” (Merck Sharp & Dohme Corp., priority 2013, dated 2017)
Like-named read-outs stand apart in the source and are kept apart here.

Molecular target: human GPR40 (Homo sapiens, UniProt O14842)
Experiment: Inositol Phosphate Turnover (IP1) Assay 2
Assay type: cell-based
Parameters: expressed in transfected cells
Experimental: Human and mouse GPR40 stable cell-lines were generated in CHO cells stably expressing NFAT BLA (Beta-lactamase). A human GPR40 stable cell-line was generated in HEK cells stably expressing the aequorin expressing reporter. The expression plasmids were transfected using lipofectamine (Life Technologies) following manufacturer's instructions. Stable cell-lines were generated following drug selection.
The assay is performed in 384-well format. HEK cells stably expressing human GPR40 are plated at 15,000 cells per well in growth medium (DMEM/10% fetal calf serum). Cell plates are then incubated 16 hours at 37 degrees in a 5% CO2 incubator.
Measurement of Inositol Phosphate Turnover (IP1) is performed using the CisBio IP-One kit (Part number 62IPAPEB). After the 16 hour incubation, the cells are washed with HEPES buffer and 10 ul of stimulation buffer (prepared as described in the kit) is added to each well. In a separate plate, compounds are diluted in DMSO (400-fold over the final concentration in the assay well) and 25 nl is acoustically transferred to the appropriate well in the assay cell plate. The plates are then incubated for 60 minutes at 37 degrees. 10 ul of detection buffer (also prepared as described in the IP-One kit) is added to each well and the plates are incubated for 60 minutes in the dark. The plates are then read in a Perkin Elmer EnVision or equivalent reader able to measure FRET.

[1] = HEK cells stably expressing human GPR40, Table 2, read-out: Human IP1
[2] = HEK cells stably expressing human GPR40, Table 3, read-out: Human IP1 activity

Sequence of human GPR40 (O14842 whole entry): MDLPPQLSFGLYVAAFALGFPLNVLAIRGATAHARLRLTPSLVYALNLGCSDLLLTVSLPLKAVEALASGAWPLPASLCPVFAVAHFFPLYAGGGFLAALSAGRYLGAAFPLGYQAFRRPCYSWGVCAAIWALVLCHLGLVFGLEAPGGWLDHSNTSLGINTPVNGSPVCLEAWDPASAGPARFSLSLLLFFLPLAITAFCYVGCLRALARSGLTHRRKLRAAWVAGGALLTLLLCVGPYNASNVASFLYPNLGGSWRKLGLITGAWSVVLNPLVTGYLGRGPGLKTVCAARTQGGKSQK

| Structure (SMILES) | EC50 [1] [nM] | EC50 [2] [nM] |
| --- | --- | --- |
| COc1ccc(F)c(-c2ccc(C3COc4ccc([C@H](C5CC5)[C@H](C)C(=O)O)cc4O3)cc2OC(F)(F)F)c1 (mixture of isomers) [Example 169] |  | 9.5 |
| CC#C[C@@H](CC(=O)O)c1ccc2c(c1)OCC(c1ccc(-c3cc(OC)ccc3F)cc1)O2 (some centres unmarked) [Example 175] |  | 220 |
| O=C(O)C[C@H](c1ccc2c(c1)OC(c1ccc(-c3ccccc3)cc1)CC2)C1CC1 (mixture of isomers) [Example 80] | 130 |  |
| COc1ccc(F)c(-c2ccc(C3CCc4ccc([C@@H](CC(=O)O)C5CC5)cc4O3)cc2C(OC)C(F)(F)F)c1 (mixture of isomers) [Example 127] | 41.5 |  |
| COc1ccc(F)c(-c2ccc(C3CCc4ccc(C(CC(=O)O)C5CC5)nc4O3)cc2)c1 (centres unmarked) [Example 136, 3-cyclopropyl-3-(2-(2′-fluoro-5′-methoxy-[1,1′-biphenyl]-4-yl)-3,4-dihydro-2H-pyrano[2,3-b]pyridin-7-yl)propanoic acid] | 217 |  |
| COc1cc(-c2ccc(C3CCc4ccc([C@H](C5CC5)[C@H](C)C(=O)O)cc4O3)cc2)c(F)cn1 (single isomer, unassigned) [Example 117b] | 0.17 |  |
| COc1ccc(F)c(-c2ccc(C3CCc4ccc([C@@H](CC(=O)O)C5CC5)cc4O3)cc2C(OC)C(C)(C)C)c1 (single isomer, unassigned) [Example 125a] | 7.3 |  |
| CCOc1cc(-c2ccc(C3CCc4ccc([C@@H](CC(=O)O)C5CC5)cc4O3)cc2)ccc1F (some centres unmarked) [Example 84] | 1520 |  |
| COc1ccc(F)c(-c2ccc([C@H]3CCc4ccc([C@H](CC(=O)O)C5CCC5)cc4O3)cc2)c1 (single isomer, unassigned) [Example 150, (3R)-3-cyclobutyl-3-((R or S)-(2-(2′-fluoro-5′-methoxy-[1,1′-biphenyl]-4-yl)chroman-7-yl)propanoic acid] | 660 |  |
| COc1ccc(F)c(-c2ccc(C3CCc4ccc([C@@H](CC(=O)O)C5CC5)cc4O3)cc2OC(F)(F)F)c1 (mixture of isomers) [Example 99] | 29 |  |
| COc1ccc(F)c(-c2ccc(C3CCc4ccc(C(CC(=O)O)C5CC5)cc4O3)cc2C2=CCCC2(C)C)c1 (single isomer, unassigned) [Example 101d] | 90 |  |
| C[C@H](C(=O)O)[C@H](c1ccc2c(c1)OC(C1CN(Cc3cc(C(F)(F)F)ccc3C(F)(F)F)C1)CO2)C1CC1 (single isomer, unassigned) [Example 188] |  | 5.2 |
| COc1ccc(F)c(-c2ccc(C3CCc4ccc([C@@H](CC(=O)O)C5CC5)cc4O3)cc2)c1 (single isomer, unassigned) [Example 62] | 18 |  |
| COc1ccc(F)c(-c2ccc(C3CCc4ccc(C(C)CC(=O)O)cc4O3)cc2)c1 (single isomer, unassigned) [Example 140] | 1230 |  |
| COc1ccc(F)c(-c2ccc(C3CCc4ccc([C@@H](CC(=O)O)C5CC5)cc4O3)cc2C(OC)C(C)(C)C)c1 (single isomer, unassigned) [Example 125b] | 8.6 |  |
| COc1ccc(F)c(-c2ccc([C@H]3CCc4ccc([C@@H](CC(=O)O)C5CCC5)cc4O3)cc2)c1 (single isomer, unassigned) [Example 149, (3S)-3-cyclobutyl-3-((R or S)-(2-(2′-fluoro-5′-methoxy-[1,1′-biphenyl]-4-yl)chroman-7-yl)propanoic acid] | 41 |  |
| COc1cncc(-c2ccc(C3CCc4ccc([C@@H](CC(=O)O)C5CC5)cc4O3)cc2)n1 (some centres unmarked) [Example 77] | 920 |  |
| COc1ccc(F)c(-c2ccc(C3COc4ccc([C@H](C5CC5)[C@H](C)C(=O)O)cc4O3)cc2OC(F)(F)F)c1 (single isomer, unassigned) [Example 172] |  | 6.9 |
| COc1cncc(-c2ccc(C3CCc4ccc([C@@H](CC(=O)O)C5CC5)cc4O3)c(F)c2)n1 (mixture of isomers) [Example 93] | 488 |  |
| COc1ccc(F)c(-c2ccc([C@H]3COc4ccc([C@H](C5CC5)[C@@H](C)C(=O)O)cc4O3)cc2Cl)c1 [Example 183] |  | 99.6 |
| COc1ccc(F)c(-c2ccc(C3COc4ccc([C@H](C5CC5)[C@H](C)C(=O)O)cc4O3)cc2OC(F)(F)F)c1 (single isomer, unassigned) [Example 171] |  | 2.6 |
| COc1ccc(F)c(-c2ccc(C3COc4ccc([C@H](C5CC5)[C@H](C)C(=O)O)c(F)c4O3)cc2)c1 (single isomer, unassigned) [Example 186] |  | 7.9 |
| COc1cc(-c2ccc(C3CCc4ccc([C@H](C5CC5)[C@H](C)C(=O)O)cc4O3)cc2C(OC)C(C)(C)C)ccn1 (mixture of isomers) [Example 129] | 0.5 |  |
| C[C@H](C(=O)O)[C@H](c1ccc2c(c1)O[C@H](C1CN([C@H](C)c3cc(C(F)(F)F)ccc3C(F)(F)F)C1)CO2)C1CC1 [Example 189, (2S,3R)-3-((R)-3-(1-((R)-1-(2,5-bis(trifluoromethyl)phenyl)ethyl)azetidin-3-yl)-2,3-dihydrobenzo[b][1,4]dioxin-6-yl)-3-cyclopropyl-2-methylpropanoic acid] |  | 13.3 |
| COc1ccc(F)c(-c2ccc([C@H]3COc4ccc([C@H](C5CC5)[C@H](C)C(=O)O)cc4O3)cc2Cl)c1 [Example 179] |  | 16.3 |
| COc1ccc(F)c(-c2ccc([C@H]3COc4ccc([C@H](C5CC5)[C@H](C)C(=O)O)cc4O3)cc2-c2cccc3ccn(C)c23)c1 [Example 181] |  | 8.3 |

Next, values leading:

| EC50 [1] [nM] | EC50 [2] [nM] | Structure (SMILES) |
| --- | --- | --- |
| 14 |  | COc1ccc(F)c(-c2cc(F)c(C3CCc4ccc([C@H](C5CC5)[C@H](C)C(=O)O)cc4O3)nc2C)c1 (single isomer, unassigned) [Example 113b] |
| 53 |  | COc1ccc(F)c(-c2ccc(C3CCc4ccc([C@H](C5CC5)[C@@H](C)C(=O)O)cc4O3)cc2)c1 (single isomer, unassigned) [Example 66] |
|  | 0.5 | COc1ccc(F)c(-c2ccc(C3COc4ccc([C@H](C5CC5)[C@H](C)C(=O)O)cc4O3)cc2)c1 (single isomer, unassigned) [Example 174] |
| 25 |  | COc1ccc(F)c(-c2ccc(C3CCc4ccc([C@H](C5CC5)[C@H](C)C(=O)O)cc4O3)nc2C(F)(F)F)c1 (single isomer, unassigned) [Example 111b] |
| 86 |  | COc1ccc(F)c(-c2ccc(C3CCc4ccc(C(C5CCC5)C(C)C(=O)O)cc4O3)cc2)c1 (single isomer, unassigned) [Example 154] |
|  | 2.2 | COc1ccc(F)c(-c2ccc(C3COc4ccc([C@H](C5CC5)[C@H](C)C(=O)O)cc4O3)nc2)c1 (single isomer, unassigned) [Example 161] |
| 252 |  | COc1ccc(F)c(-c2ccc(C3CCc4ccc(C(C)C(C)C(=O)O)cc4O3)cc2)c1 (single isomer, unassigned) [Example 143] |
| 0.82 |  | COc1ccc(F)c(-c2cnc(C3CCc4ccc([C@H](C5CC5)[C@H](C)C(=O)O)cc4O3)c(F)c2)c1 (single isomer, unassigned) [Example 105a] |
| 1420 |  | COc1ccc(F)c(-c2ccc(C3CCc4ccc(C(C)C(C)C(=O)O)cc4O3)cc2)c1 (single isomer, unassigned) [Example 144] |
| 51 |  | COc1ccc(F)c(-c2cnc(C3CCc4ccc([C@H](C5CC5)C(C)C(=O)O)cc4O3)nc2)c1 (single isomer, unassigned) [Example 124a] |
|  | 0.17 | COc1ccc(F)c(-c2ccc(C3COc4ccc([C@H](C5CC5)[C@H](C)C(=O)O)cc4O3)cc2)c1 (some centres unmarked) [Example 170] |
| 132 |  | COc1ccc(F)c(-c2ccc(C3CCc4ccc(C(C5CCC5)C(C)C(=O)O)cc4O3)cc2)c1 (single isomer, unassigned) [Example 158] |
| 132 |  | C[C@H](C(=O)O)[C@H](c1ccc2c(c1)OC(c1ccc(-c3cc(O)ccc3F)cn1)CC2)C1CC1 (mixture of isomers) [Example 107] |
| 209 |  | COc1ccc(F)c(-c2ccc(C3CCc4ccc(C(C5CCC5)C(C)C(=O)O)cc4O3)cc2)c1 (single isomer, unassigned) [Example 156] |
| 270 |  | COc1ccc(F)c(-c2ccc(C3CCc4ccc(C(C)C(C)C(=O)O)cc4O3)cc2)c1 (single isomer, unassigned) [Example 146] |
| 44 |  | COc1ccc(F)c(-c2ccc(C3CCc4ccc([C@H](C5CC5)[C@H](C)C(=O)O)cc4O3)nc2C(OC)C(C)(C)C)c1 (single isomer, unassigned) [Example 135d] |
| 17 |  | COc1ccc(F)c(-c2ccc(C3CCc4ccc([C@H](C5CC5)[C@H](C)C(=O)O)cc4O3)c(C(F)(F)F)n2)c1 (mixture of isomers) [Example 116] |
| 454 |  | COc1ccc(F)c(-c2ccc(C3CCc4ccc([C@H](C5CC5)[C@H](C)C(=O)O)nc4O3)cc2)c1 (mixture of isomers) [Example 137] |
| 5.8 |  | COc1ccc(F)c(-c2cnc(C3CCc4ccc([C@H](C5CC5)[C@H](C)C(=O)O)cc4O3)cc2OC)c1 (single isomer, unassigned) [Example 108b] |
| 16 |  | COc1ccc(F)c(-c2ccc(C3CCc4ccc([C@@H](CC(=O)O)C5CC5)cc4O3)nc2)c1 (mixture of isomers) [Example 104] |
| 263 |  | COc1ccc(F)c(-c2cnc(C3CCc4ccc([C@H](C5CC5)[C@H](C)C(=O)O)cc4O3)cc2OC)c1 (single isomer, unassigned) [Example 108a] |
